Experimental data published in PubChem BioAssay AID179 (DTP/NCI, 2004).
Active and inactive are the calls of the source.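 How the source made its calls: active means compounds giving half or more protection of infected cells from virus-caused growth loss, again on retest; inactive means the rest.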

Test system: CEM cells HIV-1 protection, formazan growth assay
Experiment: NCI AIDS Antiviral Assay
Conditions: for IC50: measured here: growth of uninfected CEM cells
Procedure, shortened: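 Protection of CEM cells against HIV-1 was scored from cell growth (soluble formazan) across five concentrations, with parallel uninfected cells. Lack of protection may reflect toxicity.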

NC(=O)C(=CNC(=S)Nc1ccc(S(N)(=O)=O)cc1)C(N)=O
EC50: > 200 µM | IC50: > 200 µM

CC(C)(C)[Si](C)(C)OCC1=C(CC#N)C(O[Si](C)(C)C(C)(C)C)C(n2ccc(=O)[nH]c2=O)O1 (centres undefined)
EC50: > 200 µM | IC50: 9.33 µM

CNC(=O)CN(C)C(=O)CCC(=O)N(C)C
EC50: > 200 µM | IC50: > 200 µM

Clc1ncccc1SSc1cccnc1Cl
EC50: > 200 µM | IC50: 89.1 µM

O=[N+]([O-])c1ccc(Cl)c(C2SCc3nc4ccccc4n32)c1 (centres undefined)
EC50: > 39.8 µM | IC50: 33.1 µM

COc1ccc(N(C)C(=O)N(C)c2ccc([N+](=O)[O-])cc2)cc1
EC50: > 200 µM | IC50: 9.33 µM

c1cc(C2O[C@H]3CCCN3[C@@H]2c2ccncc2)ccn1 (some centres undefined)
EC50: > 933 µM | IC50: 331 µM

CN1C(=O)/C(=N\n2c(-c3ccccc3)nc3ccccc3c2=O)c2cc(Br)ccc21
EC50: > 200 µM | IC50: > 200 µM

COc1ccc([N+](=O)[O-])c2c(NCCCN(C)C)ccnc12
EC50: > 200 µM | IC50: 4.47 µM

Cc1cc(S(=O)(=O)Nc2nnc3ccc4ccccc4n23)c(S)cc1Cl
EC50: > 200 µM | IC50: 30.9 µM

Cc1ccc(S(=O)OCc2c(C)c(C)c(COS(=O)c3ccc(C)cc3)c(C)c2C)cc1 (centres undefined)
outcome: inactive

c1ccc(COCC23CCN(Cc4ccccc4)C(CC(OCc4ccccc4)C2)S3)cc1 (centres undefined)
EC50: > 200 µM | IC50: 45.7 µM

COC1OC2COc3ccccc3OC2C2N=C(N)SC12 (centres undefined)
EC50: 295 µM | IC50: 363 µM

CN(C)C(F)=PC(F)(F)F (centres undefined)
EC50: > 251 µM | IC50: > 251 µM

C=Cc1cc[n+](CCCCCC[n+]2ccc(C=C)cc2)cc1
EC50: > 200 µM | IC50: > 200 µM

Cc1ccc(S(=O)(=O)NCCSS(=O)(=O)c2ccc(C)cc2)cc1
EC50: > 25.7 µM | IC50: > 25.7 µM

CC(=O)Nc1ccc(C(=O)NN2C(=O)C(Cl)C2c2cc(Br)ccc2O)cc1 (centres undefined)
EC50: > 200 µM | IC50: 4.17 µM

O=c1cc(NCc2ccncc2)[nH]c(=O)[nH]1
outcome: inactive

Clc1ccc(C2NN=C3c4ccccc4OCC32)cc1 (centres undefined)
EC50: > 200 µM | IC50: 4.27 µM

CC1=CC(=O)CC2(C)CC[C@@H]3C[C@]12OC3(C)C (some centres undefined)
outcome: inactive

O=C1OCC(Cc2ccc3c(c2)OCO3)[C@H]1Cc1cccc(O)c1 (some centres undefined)
EC50: > 200 µM | IC50: 79.4 µM

CN[C@@H](C)[C@H](NC)c1ccccc1
outcome: inactive

CC(=O)[C@H]1CC[C@@H]2[C@]1(C)CC=C1[C@]23C=C[C@]2(C[C@@H](O)CC[C@]12C)C(C(=O)O)C3C(=O)O (some centres undefined)
outcome: inactive

CCOC(=O)Cc1nc2sc(S(N)(=O)=O)nn2c1Br
EC50: > 200 µM | IC50: 10 µM

CC(Nc1ccc(Cl)c(Cl)c1)c1ccncc1 (centres undefined)
EC50: > 200 µM | IC50: 28.8 µM

O=C1OCC(C(=O)c2cccc(O)c2)C1=O (centres undefined)
outcome: inactive

Cc1ccnc2c1ccc1nc3ccccc3n12
EC50: > 200 µM | IC50: > 200 µM

COc1ccc(C2=Nc3ccccc3NC(=O)C2)cc1
EC50: > 37.2 µM | IC50: > 37.2 µM

O=C1c2ccc(S(=O)(=O)O)c(O)c2C(=O)c2ccc(S(=O)(=O)O)c(O)c21
outcome: inactive

Brc1ccc(-c2nc3sc(-c4ccc5c(c4)OCO5)nn3c2Br)cc1
EC50: > 200 µM | IC50: > 200 µM

COc1ccc(/C=C(\C#N)c2ccc(C)cc2)cc1OC
EC50: > 200 µM | IC50: 33.1 µM

COC1(C)CCC(OS(C)(=O)=O)CO1 (centres undefined)
EC50: > 200 µM | IC50: > 200 µM

Cc1ccc(C)n1CCN1CCNCC1
EC50: > 200 µM | IC50: 162 µM

Nc1ccn(C2CCC(CO)O2)c(=O)n1 (centres undefined)
EC50: 4.68 µM | IC50: 13.5 µM

CCOC(=O)c1ccc(CS(=O)(=O)c2ccccc2C(=O)OCC)cc1
EC50: > 95.5 µM | IC50: > 95.5 µM

Cc1c(C)c2c(c(N)c1C#N)C(=O)N(N)C2=O
EC50: > 200 µM | IC50: 132 µM

C[C@H]1CCC/C=C/[C@@H]2C[C@H](O)C[C@H]2[C@H](O)/C=C/C(=O)O1
EC50: > 891 µM | IC50: 0.282 µM

CC1CCCN2C(=O)CN(c3ccccc3)CC(=O)N12 (centres undefined)
EC50: > 200 µM | IC50: > 200 µM
